Test results taken from patent US7846719B2, “Express system of soluble glutaminyl cyclase” (Academia Sinica, priority 2006, dated 2010).
Where two headings read alike, the source gives them in different places. Values belong to the compound of their own block, whether it stands above or below them. Peptide text beside a SMILES is read from it.

What was measured:
Human QC [1] = biological target: T1, Human QC (Homo sapiens, UniProt Q16769); experiment: QC inhibition test, spectrophotometric, 96-well microplate; assay type: biochemical; parameters: corresponding to the coding region of human QC (Ala33-Leu361) was re-amplified and inserted into a pET-43.1a expression vector; Nus fusion (pET-43.1a construct) or thioredoxin fusion (pET-32a construct) (N, cleaved yes); (His)6 (pET-43.1a construct: N- and C-terminal sites; pET-32a construct: 5'-end, upstream of the Factor Xa site); made in house; host or cells: E. coli BL21 (DE3); settings: inhibitor 140 μM, substrate H-Gln-Gln-OH 0.55 mM, human QC 28.8 nM, preincubation 5 to 10 min; for remaining activity at 140 µM: read-out: QC activity (% of control)
Description: Reactions were started by the addition of QC (0.04 to 2.5 μg), and the activity was monitored by recording the decrease of NADH absorbance at 340 nm.
For an inhibition test, the reaction composition was the same as described above, except for the addition of the inhibitor compound. Prior to the spectrophotometric analysis on a 96-well microplate, the enzyme was incubated with the inhibitor for 5 to 10 min.
Target sequence in this assay (Q16769 33-361): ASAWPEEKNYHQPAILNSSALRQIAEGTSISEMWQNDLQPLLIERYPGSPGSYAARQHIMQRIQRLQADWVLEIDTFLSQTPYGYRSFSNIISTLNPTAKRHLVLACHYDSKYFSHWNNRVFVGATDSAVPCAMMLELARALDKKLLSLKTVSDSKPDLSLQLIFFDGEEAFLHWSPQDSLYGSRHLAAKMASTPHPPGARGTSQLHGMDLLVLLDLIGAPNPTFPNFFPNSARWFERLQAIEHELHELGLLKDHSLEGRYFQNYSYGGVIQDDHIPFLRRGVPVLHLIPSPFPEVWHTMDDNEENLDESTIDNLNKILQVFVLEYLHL

Human QC [2] = biological target: T1, Human QC; parameters: host or cells: Pichia pastoris; settings: substrate of human QC expressed in Drosophila S2 cell; reported by Booth et al.; cited from earlier work
Target sequence in this assay (Q16769 29-361): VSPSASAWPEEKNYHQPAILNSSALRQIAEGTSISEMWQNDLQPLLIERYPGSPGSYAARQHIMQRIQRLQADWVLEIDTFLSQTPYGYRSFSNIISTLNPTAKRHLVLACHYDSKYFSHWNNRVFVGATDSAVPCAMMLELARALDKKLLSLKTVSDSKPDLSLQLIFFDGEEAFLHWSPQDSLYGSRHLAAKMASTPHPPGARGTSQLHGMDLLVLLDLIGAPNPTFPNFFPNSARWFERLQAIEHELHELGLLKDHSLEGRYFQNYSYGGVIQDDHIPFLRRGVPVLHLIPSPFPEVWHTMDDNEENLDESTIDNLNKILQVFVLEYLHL

Human QC [3] = biological target: T1, Human QC; parameters: host or cells: Pichia pastoris; settings: substrate of human QC expressed in Pichia pastoris cell; reported by Schilling et al.; cited from earlier work
Target sequence in this assay (Q16769 29-361): as above

Human QC [4] = biological target: T1, Human QC; experiment: Spectrophotometric QC activity assay (glutamate dehydrogenase coupled), human QC expressed in E. coli; assay type: biochemical; parameters: corresponding to the coding region of human QC (Ala33-Leu361) was re-amplified and inserted into a pET-43.1a expression vector; Nus fusion (pET-43.1a construct) or thioredoxin fusion (pET-32a construct) (N, cleaved yes); (His)6 (pET-43.1a construct: N- and C-terminal sites; pET-32a construct: 5'-end, upstream of the Factor Xa site); made in house; host or cells: E. coli BL21 (DE3); settings: substrate of human QC expressed in Escherichia coli cell, mean ± SD (n = 2)
Description: For the spectrophotometric method, the 500 μl assay solutions consisted of 15 units glutamate dehydrogenase, 12 mM α-ketoglutarate, 0.6 mM NADH (a reduced form of NAD (nicotinamide adenine dinucleotide)) and varying concentrations of synthetic substrate in 50 mM Tris-HCl, pH 8.0. Reactions were started by the addition of QC (0.04 to 2.5 μg), and the activity was monitored by recording the decrease of NADH absorbance at 340 nm.
The Km and kcat values determined for the recombinant protein of the invention were very similar to the human QC expressed in Drosophila S2 cells, as evident in Table 1.
Target sequence in this assay (Q16769 33-361): as the sequence (Q16769 33-361) above

Human QC [5] = biological target: T1, Human QC; experiment: QC activity analysis by reverse-phase HPLC on [Gln1]-TRH; assay type: biochemical; parameters: corresponding to the coding region of human QC (Ala33-Leu361) was re-amplified and inserted into a pET-43.1a expression vector; Nus fusion (pET-43.1a construct) or thioredoxin fusion (pET-32a construct) (N, cleaved yes); (His)6 (pET-43.1a construct: N- and C-terminal sites; pET-32a construct: 5'-end, upstream of the Factor Xa site); made in house; host or cells: E. coli BL21 (DE3); settings: 50 mM Tris-HCl
Description: QC activity was analyzed based on reverse-phase HPLC and spectrophotometric measurement. […] A reaction without addition of human QC was provided as a control in the assay. Subsequently, a 20 μl aliquot of the mixture was subjected to HPLC analysis on a Waters liquid chromatograph using a C18 column (Waters, Milford, Mass.). The bound materials were eluted by a three-step linear gradient of methanol containing 0.1% trifluoroacetic acid (TFA). The eluates were detected at 214 nm and identified by mass spectrometry and N-terminal sequencing.
The synthetic [Gln^1]-TRH (Gln-His-Pro), one of the putative physiological substrates of human QC, was used to analyze the QC activity of the recombinant protein based on the HPLC elution profile of the peptide.
Target sequence in this assay (Q16769 33-361): as above

Compound: c1ccc(N=c2[n-][n+](-c3ccccc3)cn2-c2ccccc2)cc1 [nitron]
QC activity (% of control) (Human QC [1]): 61.4 % of control

Compound: c1ccc(Cn2ccnc2)cc1 [1-benzylimidazole]
remaining activity at 140 µM (Human QC [1]): 41.5%

Compound: Nc1nc[nH]n1 [3-amino-1,2,4-triazole]
remaining activity at 140 µM (Human QC [1]): 84.5%

kcat (Human QC [4]): 20.9 ± 2.1 s⁻¹
Km (Human QC [4]; 50 mM Tris-HCl, pH 8.0): 4100 ± 600 µM
Compound: CC(C)(C)OC(=O)[C@@H](N)CCC(N)=O [Gln-t-butyl ester, H-Gln-t-butyl ester]
Km (Human QC [2]): 6700 ± 2000 µM
kcat (Human QC [2]): 16.0 s⁻¹
Km (Human QC [3]): 1200 ± 100 µM
kcat (Human QC [3]): 6.7 ± 0.2 s⁻¹

remaining activity at 140 µM (Human QC [1]): 90.6%
Compound: CCOC(=O)Cc1nnn[nH]1 [ethyl 1H-tetrazole-5-acetate]

Turnover in the absence of human QC (Human QC [5]; 5 days, pH 8.0, at 25° C., no enzyme): less than 20%
Conversion into [pGlu1]-TRH by human QC (Human QC [5]; within 20 minutes, 0.6 μM human QC, 14.8 mM substrate, pH 8.0, 25° C.): almost completely converted
Compound: [Gln^1]-TRH (Gln-His-Pro)

Compound: NC(=O)CC[C@H](NC(=O)[C@@H](N)CCC(N)=O)C(=O)O [Gln-Gln, H-Gln-Gln-OH] (H-Gln-Gln-OH)
Km (Human QC [2]): 700 ± 400 µM
kcat (Human QC [2]): 10.0 s⁻¹
Km (Human QC [3]): 100 µM
kcat (Human QC [3]): 20.7 ± 0.2 s⁻¹

Compound: Nc1n[nH]c(N)n1 [3,5-diamino-1,2,4-triazole]
remaining activity at 140 µM (Human QC [1]): 89.9%

remaining activity at 140 µM (Human QC [1]): 89.1%
Compound: CSc1nnn[nH]1 [5-(methylthio)-1H-tetrazole]

remaining activity at 140 µM (Human QC [1]): 78.2%
Compound: O=c1[nH][nH]c(=O)n1-c1ccccc1 [4-phenyl-1,2,4-triazoleine-3,5-dione]
